Here are results for 45 compounds from patent publication US10793535B2, “Heterocyclic glutaminase inhibitors” (Calithera Biosciences, Inc., priority 2012, dated 2020).

Each structure is given as a SMILES string. Where two headings read alike, the source gives them in different places.

This assay concerns P493-6 (myc "on") cells. In words: Cell proliferation assay. The settings on record: read-out: Cell prolif P493 72 h IC50. In kind it is cell-based. How it is done:
P493-6 (myc “on”) cells were maintained in growth media (RPMI-1640, 10% FBS, 2 mM glutamine, 100 units/ml Penicillin and 100 μg/ml streptomycin) at 37° C. with 5% CO2. For compound assay, P493-6 cells were plated in 96-well V-bottom plates on the day of compound addition in 50 μl of growth media at a cell density of 200,000 cells/ml (10,000 cells/well). Compounds were serially diluted in 100% DMSO at 200-times the final concentration. Compounds were diluted 100-fold into growth media and then 50 μl of this mixture was added to cell plates making the final concentration of DMSO 0.5%. Cells were incubated with compound for 72 hrs at 37° C. with 5% CO2 and analyzed for antiproliferative effects either by Cell Titer Glo (Promega) or FACS analysis using the Viacount (Millipore) kit on the Guava instrument.

What is called IC50 is the concentration that inhibits the measured activity by half. For `O=C(Cc1cccc(OC(F)(F)F)c1)Nc1ccc(CCCCc2nnc(NC(=O)Cc3c[nH]cn3)s2)nn1` [Compound 697], the IC50 (P493-6, 72 h) stood at 0.05 µM.
As for `[2H]C([2H])(CCc1nnc(NC(=O)Cc2ccccn2)s1)C([2H])([2H])c1ccc(NC(=O)Cc2cccc(OC(F)(F)F)c2)nn1` [Compound 727], the IC50 (72 h) came to 0.012 µM.
Regarding `Cc1cccc(CC(=O)Nc2nnc(CCCCc3ccc(NC(=O)Cc4cccc(OC(F)(F)F)c4)nn3)s2)n1` [Compound 728], under “P493-6, 72 h”, the IC50 was determined as 0.018 µM.
`Cc1c(CC(=O)Nc2nnc(CCCCc3ccc(NC(=O)Cc4cccc(OC(F)(F)F)c4)nn3)s2)cnn1C` [Compound 686]: under “P493-6, 72 h”, the IC50 was 0.01 µM.
Same read-out and setting: the result for `Cn1cc(CC(=O)Nc2nnc(CCCCc3ccc(NC(=O)Cc4cccc(OC(F)(F)F)c4)nn3)s2)cn1` [Compound 685] reads 0.022 µM; that for `CC(C)(C)OC(=O)NCc1cccc(CC(=O)Nc2nnc(CCCCc3ccc(NC(=O)Cc4cccc(OC(F)(F)F)c4)nn3)s2)c1` [Compound 586], 0.031 µM; that for `O=C(Cc1cccc(OC(F)(F)F)c1)Nc1ccc(CCCCc2nnc(NC(=O)Cc3cccc(Cl)c3)s2)nn1` [Compound 680], 0.033 µM.
Take `O=C(Cc1cccc(OC(F)(F)F)c1)Nc1ccc(CCCCc2nnc(NC(=O)CN3C(=O)CCC3=O)s2)nn1` [Compound 708]: the IC50 (P493-6, 72 h) came out at 2.8 µM.
The same measure, in the same setting: the result for `CC(C(=O)Nc1nnc(CCCCc2ccc(NC(=O)Cc3cccc(OC(F)(F)F)c3)nn2)s1)c1ccccc1` (stereo not drawn) [Compound 636] reads 0.059 µM; that for `O=C(Cc1cccc(OC(F)(F)F)c1)Nc1ccc(CCCCc2nnc(NC(=O)Cn3cc(Cl)cn3)s2)nn1` [Compound 700], 0.17 µM; that for `COc1cc(CC(=O)Nc2ccc(CCCCc3nnc(NC(=O)Cc4ccccn4)s3)nn2)cc(OC(F)(F)F)c1` [Compound 729], 0.026 µM.
Same read-out and setting: as for `COc1ccc(CC(=O)Nc2ccc(CCCCc3nnc(NC(=O)Cc4ccccn4)s3)nn2)cc1OC(F)(F)F` [Compound 722], the figure is 0.016 µM; as for `O=C(Cc1cccc(OC(F)(F)F)c1)Nc1ccc(CCCCc2nnc(NC(=O)Cc3cccc(OCC(F)(F)F)c3)s2)nn1` [Compound 669], 0.026 µM; as for `Nc1cccc(CC(=O)Nc2nnc(CCCCc3ccc(NC(=O)Cc4cccc(OC(F)(F)F)c4)nn3)s2)n1` [Compound 725], 0.15 µM.
The same measure, in the same setting: as for `CCCC(=O)OCN(C(=O)Cc1ccccc1)c1nnc(CCCCc2ccc(NC(=O)Cc3ccccc3)nn2)s1` [Compound 402], the figure is 0.054 µM.
For `O=C(Cc1cccc(OC(F)(F)F)c1)Nc1ccc(CCCCc2nnc(NC(=O)C(O)c3ccccc3)s2)nn1` (stereo not drawn) [Compound 689], the IC50 (P493-6, 72 h) was found to be 0.013 µM.
On the same count and under the same terms, the result for `Nc1ccc(CCCCc2nnc(NC(=O)Cc3ccccn3)s2)nn1` [Compound 706] reads 14 µM; that for `C[S+]([O-])c1cccc(CC(=O)Nc2nnc(CCCCc3ccc(NC(=O)Cc4cccc(OC(F)(F)F)c4)nn3)s2)c1` (stereo not drawn) [Compound 682], 0.017 µM.
On the same count and under the same terms, the result for `COc1ccc(OC(F)(F)F)cc1CC(=O)Nc1ccc(CCCCc2nnc(NC(=O)Cc3ccccn3)s2)nn1` [Compound 717] reads 0.19 µM.
Consider `O=C(Cc1cccc(OC(F)(F)F)c1)Nc1ccc(CCCCc2nnc(NC(=O)Cc3cccc[n+]3[O-])s2)nn1` [Compound 716], for which the IC50 (P493-6, 72 h) worked out at 0.18 µM.
The same measure, in the same setting: as for `Cc1n[nH]c(C)c1CC(=O)Nc1nnc(CCCCc2ccc(NC(=O)Cc3cccc(OC(F)(F)F)c3)nn2)s1` [Compound 695], the figure is 0.03 µM.
On the same count and under the same terms, the result for `CSc1cccc(CC(=O)Nc2nnc(CCCCc3ccc(NC(=O)Cc4cccc(OC(F)(F)F)c4)nn3)s2)c1` [Compound 674] reads 0.024 µM; that for `Cn1ccc(CC(=O)Nc2nnc(CCCCc3ccc(NC(=O)Cc4cccc(OC(F)(F)F)c4)nn3)s2)n1` [Compound 687], 0.011 µM; that for `O=C(Cc1cccc(OC(F)(F)F)c1)Nc1ccc(CCCCc2nnc(NC(=O)Cc3cccnc3)s2)nn1` [Compound 671], 0.035 µM.
On the same count and under the same terms, as for `N#Cc1cccc(CC(=O)Nc2nnc(CCCCc3ccc(NC(=O)Cc4cccc(OC(F)(F)F)c4)nn3)s2)c1` [Compound 692], the figure is 0.02 µM; as for `O=C(Cc1cccc(OC(F)(F)F)c1)Nc1ccc(CCCCc2nnc(NC(=O)Cc3ccon3)s2)nn1` [Compound 677], 0.056 µM.
For `O=C(Cc1cc(OC(F)(F)F)ccc1F)Nc1ccc(CCCCc2nnc(NC(=O)Cc3ccccn3)s2)nn1` [Compound 720], under “P493-6, 72 h”, the IC50 was 0.92 µM.
The same measure, in the same setting: the result for `O=C(Cc1cccc(OC(F)(F)F)c1)Nc1ccc(CCCCc2nnc(NC(=O)Cc3cnccn3)s2)nn1` [Compound 676] reads 0.03 µM; that for `O=C(Cc1cccc(OC(F)(F)F)c1)Nc1ccc(CCCCc2nnc(NC(=O)Cc3ccc(F)cc3)s2)nn1` [Compound 661], 0.12 µM; that for `Cc1nc(CC(=O)Nc2nnc(CCCCc3ccc(NC(=O)Cc4cccc(OC(F)(F)F)c4)nn3)s2)c(C)s1` [Compound 688], 0.012 µM.
The same measure, in the same setting: the result for `O=C(Cc1cccc(OC(F)(F)F)c1)Nc1ccc(CCCCc2nnc(NC(=O)Cc3ccncc3)s2)nn1` [Compound 672] reads 0.045 µM; that for `O=C(Cc1cccc(OC(F)(F)F)c1)Nc1ccc(CCCCc2nnc(NC(=O)Cn3c(CN4CCOCC4)nc4ccccc43)s2)nn1` [Compound 702], 0.31 µM; that for `CC(C)(C)OC(=O)Nc1cccc(CC(=O)Nc2nnc(CCCCc3ccc(NC(=O)Cc4cccc(OC(F)(F)F)c4)nn3)s2)n1` [Compound 724], 0.034 µM.
For `O=C(Cc1ccc(Cl)c(OC(F)(F)F)c1)Nc1ccc(CCCCc2nnc(NC(=O)Cc3ccccn3)s2)nn1` [Compound 721], the half-maximal inhibitory concentration (IC50) (P493-6, 72 h) turned out to be 0.022 µM.
Same read-out and setting: the result for `O=C(Cc1ccc(F)c(OC(F)(F)F)c1)Nc1ccc(CCCCc2nnc(NC(=O)Cc3ccccn3)s2)nn1` [Compound 719] reads 0.01 µM; that for `O=C(Cc1cccc(OC(F)(F)F)c1)Nc1ccc(CCCCc2nnc(NC(=O)CN3CCCCC3=O)s2)nn1` [Compound 707], 0.085 µM; that for `O=C(Cc1cccc(OC(F)(F)F)c1)Nc1ccc(CCCCc2nnc(NC(=O)Cc3cncnc3)s2)nn1` [Compound 675], 0.04 µM.
Regarding `O=C(Cc1cccc(OC(F)(F)F)c1)Nc1ccc(CCCCc2nnc(NC(=O)Cn3cccn3)s2)nn1` [Compound 693], for the setting “P493-6, 72 h”, the IC50 is 0.07 µM.
The same measure, in the same setting: as for `CS(=O)(=O)c1cccc(CC(=O)Nc2nnc(CCCCc3ccc(NC(=O)Cc4cccc(OC(F)(F)F)c4)nn3)s2)c1` [Compound 681], the figure is 0.019 µM.
On the same count and under the same terms, the result for `O=C(Cc1cccc(OC(F)(F)F)c1)Nc1ccc(CCCCc2nnc(NC(=O)Cc3cc(F)cc(F)c3)s2)nn1` [Compound 662] reads 0.055 µM.
Still for that read-out and setting: as for `O=C(Cc1ccccc1)Nc1nnc(CCSCCc2nnc(NC(=O)Cc3ccccc3)s2)s1` [Compound 1], the figure is 0.47 µM; as for `COCCC(C(=O)Nc1nnc(CCCCc2ccc(NC(=O)Cc3cccc(OC(F)(F)F)c3)nn2)s1)c1cccnc1` (stereo not drawn) [Compound 684], 0.042 µM; as for `O=C(Cc1cc(O)cc(OC(F)(F)F)c1)Nc1ccc(CCCCc2nnc(NC(=O)Cc3ccccn3)s2)nn1` [Compound 730], 0.025 µM.
Regarding `Cc1cc(C)n(CC(=O)Nc2nnc(CCCCc3ccc(NC(=O)Cc4cccc(OC(F)(F)F)c4)nn3)s2)n1` [Compound 701], the IC50 (P493-6, 72 h) turned out to be 0.11 µM.
Still for that read-out and setting: as for `O=C(Cc1cccc(OC(F)(F)F)c1)Nc1ccc(CCCCc2nnc(NC(=O)Cc3ccccc3F)s2)nn1` [Compound 673], the figure is 0.033 µM.
